Assays:
[1] = Antitumor activity against KBv200 cells by MTT assay; type: functional, cell-based; conditions: Homo sapiens
[2] = system: KB; test: Antitumor activity against KB cells by MTT assay; type: functional, cell-based; conditions: Homo sapiens

Compound | IC50 [2] [µM] | IC50 [1] [µM]
C=C=CCBr | > 200 | > 200
C=C=CCOC(=O)[C@]1(O)CC(OC(=O)/C=C/c2ccc(OCC=C=C)c(O)c2)[C@@H](O)[C@@H](O)C1 (stereo partly drawn) | 53.1 | 35.7
C=C=CCO | > 200 | > 200
C=C=CCOc1ccc(COc2ccc(C(=O)OC)cc2)cc1 | 75.4 | 52.9
O=C(/C=C/c1ccc(O)c(O)c1)OC1C[C@@](O)(C(=O)O)C[C@H](O)[C@@H]1O (stereo partly drawn) | > 200 | > 200
C=C=CCOc1ccc(/C=C/C(=O)OC)cc1O | 29.4 | 23.4
C=C=CCOc1ccc(COc2ccc(/C=C/C(=O)OC)cc2OC)cc1 | 34.6 | 30.3
COC(=O)/C=C/c1ccc(O)c(OC)c1 | > 200 | > 200
COC(=O)C1(N)CC1 | 135 | > 200
C=C=CCOc1ccc(COc2ccc(/C=C/C(=O)OC)cc2)cc1 | 48.8 | 55.5
C=C=CCOc1ccc(/C=C/C(=O)OC)cc1OC | 17.4 | 18.3
C=C=CCOc1ccc(/C=C/C(=O)NC2(C(=O)OC)CC2)cc1 | 48.1 | 77
COC(=O)/C=C/c1ccc(O)c(O)c1 [METHYLCAFFEATE] | > 200 | > 200

Continued, in another order:

IC50 [2] [µM] | Compound | IC50 [1] [µM]
22.5 | C=C=CCOc1ccc(C(=O)OC)cc1 | 20.9
27.6 | C=C=CCOc1ccc(/C=C/C(=O)OC)cc1 | 19
40.6 | C=C=CCOc1ccc(C(=O)O)cc1 | 49.6
71.5 | C=C=CCOc1ccc(/C=C/C(=O)O)cc1 | 52.4
> 200 | COC(=O)C1(NC(=O)/C=C/c2ccc(O)cc2)CC1 | > 200
> 200 | O=C(O)/C=C/c1ccc(O)cc1 [COUMARIC ACID] | > 200
123 | COC(=O)/C=C/c1ccc(O)cc1 [METHYL P-HYDROXYCINNAMATE] | 101
> 200 | COC(=O)c1ccc(O)cc1 [METHYLPARABEN] | > 200
> 200 | O=C(O)c1ccc(O)cc1 [PARABEN] | > 200
> 200 | OCc1ccc(O)cc1 [PARAHYDROXYBENZYL ALCOHOL] | > 200
74.5 | C=C=CCOc1ccc(CO)cc1 [TERRICOLLENE C] | 76.6

From ChEMBL document CHEMBL1144644, “Synthesis and biological evaluation of 12 allenic aromatic ethers” (Bioorg Med Chem Lett, 2007)
